Laboratory results: ChEMBL document CHEMBL5316350, “Novel Pyrido[2',1':2,3]imidazo[4,5-c]quinoline Derivative Selectively Poisons Leishmania donovani Bisubunit Topoisomerase 1 to Inhibit the Antimony-Resistant Leishmania Infection in Vivo” (J Med Chem, 2023)
Activity calls are given as the source filed them. The calls are words filed in the database; no cut-off is given here.

Experiments:
Leishmania donovani [1] = test: (§1) Antileishmanial activity against Leishmania donovani Ag83 promastigotes infected in BALB/c mouse assessed as reduction of amastigote burden in spleen treated after 3 weeks of infection at 5 to 10 mg/kg, ip twice a week for 3 weeks by Giemsa staining stamp-smear based limiting dilution assay; format: functional, organism-based; conditions: dose 5-10 mg/kg
Leishmania donovani [2] = test: (§2) Antileishmanial activity against Leishmania donovani Ag83 promastigotes infected in BALB/c mouse assessed as reduction of amastigote burden by measuring parasite count in spleen treated after 3 weeks of infection at 5 to 10 mg/kg, ip twice a week for 3 weeks by qPCR based kineto-plastid DNA; format: functional, organism-based; conditions: dose 5-10 mg/kg
[3] = biological target: T1, DNA topoisomerase I (Leishmania donovani (strain BPK282A1)) (UniProt E9BRC0); test: Binding affinity to topoisomerase I in Leishmania donovani Ag83 whole cell lysate assessed as stabilization of cleavage complex at 5 to 50 uM measured after 30 mins; format: subcellular; conditions: dose 5-50 µM
T1 sequence (whole entry): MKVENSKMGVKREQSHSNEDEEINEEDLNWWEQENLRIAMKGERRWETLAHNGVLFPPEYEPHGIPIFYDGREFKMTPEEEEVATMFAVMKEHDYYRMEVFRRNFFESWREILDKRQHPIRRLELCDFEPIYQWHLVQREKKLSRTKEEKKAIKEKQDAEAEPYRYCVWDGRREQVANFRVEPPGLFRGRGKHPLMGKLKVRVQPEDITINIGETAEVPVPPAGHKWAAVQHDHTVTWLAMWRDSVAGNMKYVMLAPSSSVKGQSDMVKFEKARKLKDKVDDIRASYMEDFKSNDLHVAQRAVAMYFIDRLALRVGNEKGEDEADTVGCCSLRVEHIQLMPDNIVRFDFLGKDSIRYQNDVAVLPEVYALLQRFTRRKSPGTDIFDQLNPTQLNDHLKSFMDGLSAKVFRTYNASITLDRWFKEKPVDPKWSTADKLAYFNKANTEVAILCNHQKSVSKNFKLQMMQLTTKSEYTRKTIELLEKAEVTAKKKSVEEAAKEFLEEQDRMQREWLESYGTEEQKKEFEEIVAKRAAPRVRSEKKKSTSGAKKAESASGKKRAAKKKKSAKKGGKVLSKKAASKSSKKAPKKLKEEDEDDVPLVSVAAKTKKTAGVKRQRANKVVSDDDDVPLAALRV

[4] = biological target: T1, DNA topoisomerase I (Leishmania donovani (strain BPK282A1)); test: Inhibition of Leishmania donovani recombinant Top1 assessed as relaxation of supercoiled pBluescript SK(+) DNA at 5 uM incubated for 30 mins by agarose gel electrophoresis analysis relative to control
Leishmania donovani [5] = test: Induction of apoptosis in Leishmania donovani Ag83 promastigotes assessed as necrotic cells measured at 5 uM after 24 hrs by Annexin V-FITC/PI staining based flow cytometric analysis (reference value: 0.5%); format: functional
Leishmania donovani [6] = test: Induction of cell cycle arrest in Leishmania donovani Ag83 promastigotes assessed as decrease in accumulation of cells in S phase at 5 uM measured after 12 hrs by PI staining based flow cytometry (reference value: 18.1%); format: functional; design: scale not given: the % may be the effect or the level left
Leishmania donovani [7] = test: Induction of cell cycle arrest in Leishmania donovani Ag83 promastigotes assessed as decrease in accumulation of cells in G0/G1 phase at 5 uM measured after 24 hrs by PI staining based flow cytometry (reference value: 65.1%); format: functional; design: scale not given: the % may be the effect or the level left
Leishmania donovani [8] = test: Induction of apoptosis in […] Leishmania donovani Ag83 promastigotes assessed as DNA break accumulation measured at 5 uM after 15 mins by TUNEL staining based assay; format: functional, organism-based
Leishmania donovani [9] = test: as §2, with “against antimony resistant” for “against”, “BHU575” for “Ag83”; format: functional, organism-based; conditions: dose 5-10 mg/kg
[10] = biological target: T1, DNA topoisomerase I (Leishmania donovani (strain BPK282A1)); test: Binding affinity to Leishmania donovani recombinant topoisomerase I assessed as stabilization of cleavage complex at 2.5 to 25 uM measured after 30 mins; conditions: dose 2.5-25 µM
Leishmania donovani [11] = test: Antileishmanial activity against antimony resistant Leishmania donovani BHU575 promastigotes infected in BALB/c mouse assessed as reduction of macrophage at 1 to 10 uM infection by propidium iodide staining analysis; format: functional, organism-based; conditions: dose 1-10 µM, time 72-96 hrs, TDE = time-dependent effect
Leishmania donovani [12] = test: Induction of cell cycle arrest in antimony resistant Leishmania donovani BHU575 promastigotes assessed as decrease in accumulation of cells in S phase at 5 uM measured after 12 hrs by PI staining based flow cytometry (reference value: 9.8%); format: functional; design: scale not given: the % may be the effect or the level left
Leishmania donovani [13] = test: Induction of apoptosis in Leishmania donovani Ag83 promastigotes assessed as viable cells measured at 5 uM after 24 hrs by Annexin V-FITC/PI staining based flow cytometric analysis (reference value: 99.4%); format: functional
Leishmania donovani [14] = test: (§3) Antileishmanial activity against Leishmania donovani Ag83 promastigotes infected in BALB/c mouse model of visceral leishmaniasis assessed as fold change in T-helper type 1 immunological evoke response in splenocytes by measuring increased IL-12 cytokine level treated after 3 weeks of infection at 5 to 10 mg/kg, ip twice a week for 3 weeks by RT-PCR analysis; format: functional; conditions: dose 5-10 mg/kg
Leishmania donovani [15] = test: Antileishmanial activity against Leishmania donovani Ag83 amastigotes infected in BALB/c mouse macrophage assessed as cell viability measured after 48 hrs infection by propidium iodide staining analysis relative to control; format: functional, organism-based; conditions: Ag83, 48 h
Leishmania donovani [16] = test: Antileishmanial activity in Leishmania donovani Ag83 promastigotes assessed as fold change in persistent Top1cc-induced DNA breakdown by measuring TUNEL positive cells treated for 6 to 12 hrs followed by compound removal measured after 6 to 12 hrs by confocal microscopic analysis relative to camptothecin; format: functional; conditions: time 6-12 hrs
Leishmania donovani [17] = test: Antileishmanial activity against antimony resistant Leishmania donovani BHU575 promastigotes assessed as cell viability by MTT assay; format: functional, organism-based
Leishmania donovani [18] = test: Induction of cell cycle arrest in Leishmania donovani Ag83 promastigotes assessed as decrease in accumulation of cells in G2/M phase at 5 uM measured after 24 hrs by PI staining based flow cytometry (reference value: 15.1 %); format: functional; design: scale not given: the % may be the effect or the level left
Leishmania donovani [19] = test: Induction of cell cycle arrest in antimony resistant Leishmania donovani BHU575 promastigotes assessed as decrease in accumulation of cells in G0/G1 phase at 5 uM measured after 24 hrs by PI staining based flow cytometry (reference value: 80.7%); format: functional; design: scale not given: the % may be the effect or the level left
Leishmania donovani [20] = test: Induction of cell cycle arrest in antimony resistant Leishmania donovani BHU575 promastigotes assessed as decrease in accumulation of cells in G2/M phase at 5 uM measured after 24 hrs by PI staining based flow cytometry (reference value: 8.8%); format: functional; design: scale not given: the % may be the effect or the level left
Leishmania donovani [21] = test: Induction of apoptosis in Leishmania donovani Ag83 promastigotes assessed as necrotic cells measured at 5 uM after 6 hrs by Annexin V-FITC/PI staining based flow cytometric analysis (reference value: 0.5%); format: functional
Leishmania donovani [22] = test: Induction of cell cycle arrest in antimony resistant Leishmania donovani BHU575 promastigotes assessed as decrease in accumulation of cells in G0/G1 phase at 5 uM measured after 6 hrs by PI staining based flow cytometry (reference value: 80.7%); format: functional; design: scale not given: the % may be the effect or the level left
Leishmania donovani [23] = test: Induction of cell cycle arrest in Leishmania donovani Ag83 promastigotes assessed as accumulation of cells in S/G2 phase at 5 uM by PI staining based flow cytometry; format: functional, organism-based; conditions: time 6-24 hrs
Leishmania donovani [24] = test: as §3, with “IFN-gamma” for “IL-12”, “5” for “5 to 10”; format: functional
Leishmania donovani [25] = test: as §1, with “against antimony resistant” for “against”, “BHU575” for “Ag83”, “liver” for “spleen”; format: functional, organism-based; conditions: dose 5-10 mg/kg

COc1cc(-c2nc3ccccc3c3nc4ccccn4c23)cc(OC)c1OC
Activity (Leishmania donovani [1]): Active | Activity (Leishmania donovani [2]): Active | Activity [3]: Active | inhibition [4]: 85% | Activity (Leishmania donovani [5]): 23.1% | Activity (Leishmania donovani [6]): 43.1% | Activity (Leishmania donovani [7]): 31.5% | Activity (Leishmania donovani [8]): inactive | Activity (Leishmania donovani [9]): Active | Activity [10]: Active | Activity (Leishmania donovani [11]): Tde | Activity (Leishmania donovani [12]): 23.7% | Activity (Leishmania donovani [13]): 1.4% | fold change (FC) (Leishmania donovani [14]): 10 | EC50 (Leishmania donovani [15]): 2.5 µM | fold change (FC) (Leishmania donovani [16]): 3 | EC50 (Leishmania donovani [17]): 4.8 µM | Activity (Leishmania donovani [18]): 34.2% | Activity (Leishmania donovani [19]): 38% | Activity (Leishmania donovani [20]): 33.6% | Activity (Leishmania donovani [21]): 23.9% | Activity (Leishmania donovani [22]): 70.8% | Activity (Leishmania donovani [23]): Dose-Dependent Effect | fold change (FC) (Leishmania donovani [24]): 4 | Activity (Leishmania donovani [25]): Active
